Assay results published in ChEMBL document CHEMBL5308541, “MAIP: An Open-Source Tool to Enrich High-Throughput Screening Output and Identify Novel, Druglike Molecules with Antimalarial Activity” (ACS Med Chem Lett, 2023).

Experiments:
Plasmodium falciparum [1] = test: Hit confirmation in dose-response curve in Dd2 pLDH assay, at 72h; assay type: functional, organism-based, Erythrocyte; design: timepoint 72 hour; details: Plasmodium falciparum, Dd2, Erythrocyte, 72 h
Plasmodium falciparum [2] = test: Hit confirmation in dose-response curve in NF54 nanoGlo assay, at 12h; assay type: functional, organism-based, Erythrocyte; design: timepoint 12 hour; details: Plasmodium falciparum, NF54, Erythrocyte, 12 h
Plasmodium falciparum [3] = test: Hit confirmation in dose-response curve in NF54 pLDH assay, at 72h; assay type: functional, organism-based, Erythrocyte; design: timepoint 72 hour; details: Plasmodium falciparum, NF54, Erythrocyte, 72 h
[4] = Hit confirmation in dose-response curve in HepG2 cytotoxicity assay, at 72h; assay type: toxicity, cell-based, Homo sapiens; design: timepoint 72 hour; details: human, HepG2 cells
Plasmodium falciparum [5] = test: Hit confirmation in dose-response curve in NF54 nanoGlo assay, at 72h; assay type: functional, organism-based, Erythrocyte; design: timepoint 72 hour; details: Plasmodium falciparum, NF54, Erythrocyte, 72 h

Compound | IC50 (Plasmodium falciparum [1]) | IC50 (Plasmodium falciparum [2]) | IC50 (Plasmodium falciparum [3]) | IC50 at 72 h [4] | IC50 (Plasmodium falciparum [5])
Cc1cc(N2CCC(N(C)Cc3cc(-c4ccccc4)n[nH]3)CC2)nc(N)n1 | 3.72 µM | > 10 µM | 4.47 µM | > 10 µM | 3.24 µM
CC(CNc1nc(NCC(C)N2CCOCC2)c2cc(Cl)ccc2n1)N1CCOCC1 (stereo not given) | 1.58 µM | > 10 µM | 1.91 µM | > 10 µM | 1.74 µM
COCCN1CC[C@H](CN(C)c2ccnc3cc(Cl)ccc23)C1 | 1.45 µM | 1.82 µM | 1.51 µM | > 10 µM | 1.38 µM
COCCCN1CCC(Nc2ncnc3cc(C)c(C)cc23)CC1 | 1.17 µM | 2.04 µM | 1.7 µM | > 10 µM | 1.17 µM
O[C@H]1CCN(Cc2ccccc2CNc2cccc(-n3ccnc3)n2)C1 | 2.19 µM | 3.63 µM | 2.24 µM | > 10 µM | 1.41 µM
CN(c1ccccc1)c1ccc(CN2CCN([C@H]3CCNC3)CC2)cc1 | 6.46 µM | > 10 µM | 9.33 µM | > 10 µM | 4.17 µM
COCCN1CC[C@H](CNC2CCN(c3ncc4ccc(F)cc4n3)CC2)C1 | 4.07 µM | 5.62 µM | 4.57 µM | > 10 µM | 3.09 µM
Cn1cncc1[C@@H]1CNC[C@H]1CNC(=O)c1ccccc1NC1CCCCC1 | 4.17 µM | 8.13 µM | 6.76 µM | > 10 µM | 3.89 µM
O=C(NCC1CC1)c1cc2c(OCc3ccc(Cl)cc3)cccc2[nH]1 | 6.46 µM | > 10 µM | 10.2 µM | > 10 µM | 3.89 µM
O[C@@H](CNCc1ccc2c(c1)CCO2)c1ccc(F)c(F)c1 | 3.72 µM | 5.62 µM | 8.32 µM | > 10 µM | 2.29 µM
Cn1cc(-c2cncc(C(=O)NC3CCN(c4cccc(F)c4)CC3)c2)cn1 | > 10 µM | 1.41 µM | > 10 µM | > 10 µM | 3.24 µM
CNc1nc(N[C@H]2CCCN(Cc3ccc(Cl)cc3)C2)nc2c1CCC2 | 2.29 µM | > 10 µM | 2.63 µM | > 10 µM | 2.45 µM
Cc1cc(N2CCC(NC3CCNC(c4ccccc4)C3)CC2)nc(C)n1 (stereo not given) | 6.17 µM | 10.2 µM | 9.12 µM | > 10 µM | 4.37 µM
Cc1ccc2nc(CCCNC3CCN(c4cc(C)nc(N)n4)CC3)oc2c1 | 3.47 µM | 8.91 µM | 3.31 µM | > 10 µM | 3.89 µM
COC(=O)c1cn(CCNc2ccnc3cc(Cl)ccc23)cc2c(O)nnc1-2 | 0.955 µM | 3.09 µM | 1.29 µM | > 10 µM | 0.603 µM
COc1ccc(-c2cc(C(=O)Nc3ccc(N4CCN5CCCC5C4)cc3)c3c(C)noc3n2)cc1 (stereo not given) | 5.75 µM | 6.46 µM | 7.59 µM | > 10 µM | 4.27 µM
Nc1cc(N2CCC(c3nc4cc(F)ccc4[nH]3)CC2)nc(N2CCOCC2)n1 | > 10 µM | > 10 µM | 8.32 µM | > 10 µM | 8.71 µM
c1cncc(-c2ccc(CNC3CCN(Cc4cccs4)CC3)cc2)c1 | 2.69 µM | 7.94 µM | 3.72 µM | > 10 µM | 2.88 µM
CC(C)(C)n1ncc2c(NCc3ccc4cccnc4c3O)ncnc21 | 5.5 µM | 10 µM | 6.46 µM | 6.31 µM | 3.89 µM
Clc1ccc2[nH]c3c(c2c1)CCCC3NC1CCN(C2CCOC2)CC1 (stereo not given) | 2.63 µM | 3.8 µM | 2.75 µM | 10 µM | 1.82 µM
COc1ccc2[nH]cc(C3=CCN(c4ccc5nnc(-c6ccccc6F)n5n4)CC3)c2c1 | > 10 µM | > 10 µM | 8.71 µM | > 10 µM | 2.69 µM
COc1cc2nc(NCC3(N4CCN(C)CC4)CCCC3)cc(C)c2cc1OC | 2.24 µM | 8.51 µM | 3.47 µM | > 10 µM | 2.14 µM
CN1CCN(CCNC2CCN3CCCC3C2)C(c2ccccc2)C1 (stereo not given) | 3.8 µM | > 10 µM | 4.27 µM | > 10 µM | 4.17 µM
c1ccc2c(Nc3ccc4[nH]cnc4c3)c3ccccc3nc2c1 | 1.41 µM | 1.82 µM | 1.7 µM | > 10 µM | 0.832 µM
Cc1nc(-c2ccccn2)nc(NC2CCN(CC(F)F)CC2)c1C | 6.46 µM | > 10 µM | 9.12 µM | > 10 µM | 2.51 µM
CCCC(=O)NC1COCC1Cc1ccncc1 (stereo not given) | > 10 µM | 8.91 µM | > 10 µM | > 10 µM | 6.31 µM
